Data as given in US20240409530A1, “Disubstituted Pyrimidine Compounds for Ketohexokinase Inhibition” (Centennial Therapeutics, LLC, priority 2023, published 2024).

Assays:
human KHK in HepG2 Cells = human KHK in HepG2 Cells (Homo sapiens (Human), UniProt P50053); test: Cell-based potency assay (HepG2 assay), F1P by LC/MS; settings: fructose 20 mM, 20 min, F1P produced
Method: Testing inhibition effect of compounds against human KHK in HepG2 Cells
(§1) HepG2 cells were grown in RPMI1640 supplemented media on 100 mm plates to near confluency (about 5-8×10^6 cells). The growth media was aspirated and 4 mL trypsin solution (0.25% (w/v)+0.25% (w/v) EDTA) was added, followed by incubation at 37° C. for 5-10 mins. The cells were pelleted and resuspended in 2 mL complete media.
The cells were then placed in a 96 well plate at 20,000-50,000 cells per well and grown for 20-28 hours at 37° C. to allow adherence.
Inhibitor compounds were diluted in DMSO to 50 μM, then serially diluted with MEM media (ThermoFisher). Final inhibitor concentration ranged from 1000 nM to 0.064 nM (5-fold dilution series).
The RPMI medium was removed from the plate of confluent cells. The plate was then incubated for 35 min at 37°, after which were added 0.1 mL of the diluted inhibitor compounds in MEM with fructose, 0.1 mL of MEM media without inhibitor compound or fructose, or trypsin; yielding a final concentration of fructose at 20 mM. The plate was subsequently incubated for 20 min at 37°, then placed on ice to stop the reactions.
Next, 200 μL of cold 80% (v/v) methanol:water was added to all wells, except the controls used to enumerate cell count. The plate was vortexed and cell debris removed by centrifugation. To measure F1P produced, the resulting supernatant fraction was analyzed by LC/MS.

Rat recombinant KHK-A = Rat recombinant KHK-A (Rattus norvegicus (Rat), UniProt Q02974); test: KHK inhibition assay, recombinant isozyme (coupled pyruvate kinase/LDH, NADH absorbance 340 nm); type: biochemical; settings: recombinant isozyme 6 nM, fructose 2 mM, ATP 0.1 mM
Sequence of Rat recombinant KHK-A (Q02974 other isoform, or with tags, fused parts or gaps): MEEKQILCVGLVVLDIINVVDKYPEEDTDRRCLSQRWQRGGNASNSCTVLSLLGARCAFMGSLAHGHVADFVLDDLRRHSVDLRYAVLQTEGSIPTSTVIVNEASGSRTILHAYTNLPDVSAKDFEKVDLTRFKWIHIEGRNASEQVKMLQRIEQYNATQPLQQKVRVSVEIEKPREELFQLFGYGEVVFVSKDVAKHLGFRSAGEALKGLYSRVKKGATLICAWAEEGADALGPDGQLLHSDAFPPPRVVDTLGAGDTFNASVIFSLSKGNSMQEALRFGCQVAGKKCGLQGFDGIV
Method: (§2) Determination of Human and Rat recombinant KHK-A and KHK-C isozyme IC50 Values
(§3) An assay reagent cocktail was prepared by combining NADH, water, TEA, KCl, MgCl2, PEP, ATP, DTT, coupling enzymes (pyruvate kinase and lactate dehydrogenase, LDH) to final concentrations as shown in Table B.
(§4) To this was added the relevant KHK isozyme to a final concentration of 6 nM. Aliquots of each inhibitor compound were diluted via 5-fold serial dilutions to produce final concentrations ranging from 1000 nM to 0.064 nM. The inhibitor aliquots were added to the assay reagent cocktail containing KHK with fructose (at a concentration of 2 mM) in a 96-well plate. The absorbance at 340 nm was measured via spectrophotometry and inhibition was analyzed using non-linear regression.

Human recombinant KHK-A = Human recombinant KHK-A (Homo sapiens (Human), UniProt P50053); test: as above; type: biochemical; settings: recombinant isozyme 6 nM, fructose 2 mM, ATP 0.1 mM
Sequence of Human recombinant KHK-A (P50053 other isoform, or with tags, fused parts or gaps): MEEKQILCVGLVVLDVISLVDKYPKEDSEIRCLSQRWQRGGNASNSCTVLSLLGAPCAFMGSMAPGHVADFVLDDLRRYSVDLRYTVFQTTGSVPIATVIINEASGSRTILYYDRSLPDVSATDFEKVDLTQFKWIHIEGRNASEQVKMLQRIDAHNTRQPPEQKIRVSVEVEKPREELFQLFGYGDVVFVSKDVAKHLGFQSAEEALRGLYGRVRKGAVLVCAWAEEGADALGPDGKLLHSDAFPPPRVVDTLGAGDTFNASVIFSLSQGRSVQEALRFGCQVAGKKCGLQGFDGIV
Method: as §2, §3, §4

Human recombinant KHK-C = Human recombinant KHK-C (Homo sapiens (Human), UniProt P50053); test: as above; type: biochemical; settings: recombinant isozyme 6 nM, fructose 2 mM, ATP 0.1 mM
Sequence of Human recombinant KHK-C (P50053 whole entry): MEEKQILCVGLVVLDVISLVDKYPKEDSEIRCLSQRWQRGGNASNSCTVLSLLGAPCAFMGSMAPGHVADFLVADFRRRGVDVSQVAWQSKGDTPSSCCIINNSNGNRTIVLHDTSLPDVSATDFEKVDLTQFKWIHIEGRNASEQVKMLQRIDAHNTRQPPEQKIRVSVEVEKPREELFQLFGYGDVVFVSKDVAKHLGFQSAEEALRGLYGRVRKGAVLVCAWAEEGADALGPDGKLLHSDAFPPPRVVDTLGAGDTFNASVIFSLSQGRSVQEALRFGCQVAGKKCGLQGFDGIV
Method: as §2, §3, §4

Rat recombinant KHK-C = Rat recombinant KHK-C (Rattus norvegicus (Rat), UniProt Q02974); test: as above; type: biochemical; settings: recombinant isozyme 6 nM, fructose 2 mM, ATP 0.1 mM
Sequence of Rat recombinant KHK-C (Q02974 whole entry): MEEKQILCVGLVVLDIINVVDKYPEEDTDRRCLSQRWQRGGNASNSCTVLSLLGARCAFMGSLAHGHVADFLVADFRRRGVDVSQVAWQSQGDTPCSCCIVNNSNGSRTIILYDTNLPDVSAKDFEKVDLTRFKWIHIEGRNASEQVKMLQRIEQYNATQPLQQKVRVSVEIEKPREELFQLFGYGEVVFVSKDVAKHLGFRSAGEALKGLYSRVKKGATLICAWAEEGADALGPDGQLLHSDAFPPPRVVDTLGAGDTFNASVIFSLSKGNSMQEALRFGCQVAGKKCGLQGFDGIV
Method: as §2, §3, §4

[1] = target: human KHK-C in engineered HepG2 cells (Homo sapiens (Human), UniProt P50053); test: Cell-based potency assay (KHK-C-overexpressing HepG2 assay), F1P by LC/MS; settings: fructose 30 mM, 5 min, F1P produced, geomean
Sequence of human KHK-C in engineered HepG2 cells (P50053 whole entry, stated change not applied): as the sequence (P50053 whole entry) above
Method: Testing inhibition effect of compounds against human KHK-C in engineered HepG2 cells.
Engineered HepG2 cells were generated using methods known to those of skill in the art. Briefly, HepG2 cells were incubated with lentivirus carrying a transgene encoding human KHK-C, and grown under antibiotic selection.
as §1, with “KHK-C-overexpressing HepG2” for “HepG2”, “T-182 cm^2 flask” for “100 mm plates”, “25-40×10^6” for “5-8×10^6”, “aspirated, the flask was washed with 10 mL PBS,” for “aspirated”, “3-5” for “5-10”
The cells were then placed in a 96-well plate at 20,000-40,000 cells per well and grown for 20-28 hours at 37° C. to allow adherence.
Inhibitor compounds were diluted in DMSO to 50 μM, then serially diluted with MEM media (ThermoFisher). Final inhibitor concentration ranged from 5000 nM to 0.32 nM.
The RPMI medium was removed from the plate of confluent cells. The plate was then incubated for 35 min at 37° C. with 0.1 mL of the diluted inhibitor compounds in MEM. After, an additional 0.1 mL of the diluted inhibitor compounds in MEM with fructose, or 0.1 mL of MEM media without inhibitor compound and/or fructose; yielding a final concentration of fructose at 30 mM was added. The plate was subsequently incubated for 5 min at 37° C., then placed on ice to stop the reactions.
Next 200 μL of cold 80% (v/v) methanol:water was added to al wells and placed in the −80° C. freezer for 1 hour with an adhesive seal. The plate was vortexed and cell debris removed by centrifugation. To measure F1P produced, the resulting supernatant fraction was analyzed by LC/MS.

Sequence of human KHK in HepG2 Cells (P50053 whole entry): as above

IC50 (human KHK in HepG2 Cells) | IC50 (Rat recombinant KHK-A) | IC50 (Human recombinant KHK-A) | IC50 (Human recombinant KHK-C) | IC50 (Rat recombinant KHK-C) | IC50 [1] | Compound
7 nM | 2.2 nM | 6 nM | 4.06 nM | 9 nM |  | Cc1c(-c2cnn(CC(=O)N3CCNCC3)c2)nc(N2CC[C@@H]2C(F)(F)F)nc1C(F)(F)F [Compound A1, 2-(4-{2-[(R)-2-(trifluoromethyl)-1-azetidinyl]-5-methyl-6-(trifluoromethyl)-4-pyrimidinyl}-1-pyrazolyl)-1-(1-piperazinyl)-1-ethanone]
48 nM | 9 nM | 13.5 nM | 31 nM | 26 nM |  | O=C(Cn1cc(-c2cc(C(F)(F)F)nc(N3CC[C@@H]3C(F)(F)F)n2)cn1)N1CCNCC1 [Compound A2, 2-(4-{2-[(R)-2-(trifluoromethyl)-1-azetidinyl]-6-(trifluoromethyl)-4-pyrimidinyl}-1-pyrazolyl)-1-(1-piperazinyl)-1-ethanone]
25 nM | 2.9 nM | 4.6 nM | 7.48 nM | 8.3 nM | 186 nM | Cc1c(-c2cnn(CC(=O)N3CCNCC3)c2)nc(N2CC[C@@H]2C)nc1C(F)(F)F [Compound A3, 2-(4-{2-[(S)-2-methyl-1-azetidinyl]-5-methyl-6-(trifluoromethyl)-4-pyrimidinyl}-1-pyrazolyl)-1-(1-piperazinyl)-1-ethanone]
70 nM | 2.3 nM | 8.8 nM | 15.7 nM | 11 nM |  | CCc1c(-c2cnn(CC(=O)N3CCNCC3)c2)nc(N2CC[C@@H]2C)nc1C(F)(F)F [Compound A6, 2-(4-{2-[(S)-2-methyl-1-azetidinyl]-5-ethyl-6-(trifluoromethyl)-4-pyrimidinyl}-1-pyrazolyl)-1-(1-piperazinyl)-1-ethanone]
332 nM | 46 nM | 160 nM | 231 nM | 120 nM |  | C[C@H]1CCN1c1nc(-c2cnn(CC(=O)N3CCNCC3)c2)cc(C(F)F)n1 [Compound A7, 2-(4-{2-[(S)-2-methyl-1-azetidinyl]-6-(difluoromethyl)-4-pyrimidinyl}-1-pyrazolyl)-1-(1-piperazinyl)-1-ethanone]
 | 10 nM | 22 nM | 40.5 nM | 37 nM | 184 nM | C[C@H]1[C@H](O)CN1c1nc(-c2cnn(C3CN(C)C3)c2)cc(C(F)F)n1 [Compound A9, (2S,3R)-1-{6-(difluoromethyl)-4-[1-(1-methyl-3-azetidinyl)-4-pyrazolyl]-2-pyrimidinyl}-2-methyl-3-azetidinol]
4 nM | 0.96 nM | 8.5 nM | 2.09 nM | 2.1 nM |  | CCc1c(-c2cnn(C3CN(C)C3)c2)nc(N2C[C@@H](O)[C@@H]2C)nc1C(F)(F)F [Compound A11, (2S,3R)-1-{5-ethyl-4-[1-(1-methyl-3-azetidinyl)-4-pyrazolyl]-6-(trifluoromethyl)-2-pyrimidinyl}-2-methyl-3-azetidinol]
11 nM | 4.1 nM | 5.3 nM | 7.42 nM | 9.5 nM |  | Cc1c(-c2cnn(CC(=O)N3CCNCC3)c2)nc(N2CC[C@@H]2C(F)(F)F)nc1C(F)F [Compound A18, 2-(4-{2-[(R)-2-(trifluoromethyl)-1-azetidinyl]-6-(difluoromethyl)-5-methyl-4-pyrimidinyl}-1-pyrazolyl)-1-(1-piperazinyl)-1-ethanone]
23 nM | 6.6 nM | 27 nM | 10.6 nM | 17 nM |  | COc1c(-c2cnn(C3CN(C)C3)c2)nc(N2C[C@@H](O)[C@@H]2C)nc1C(F)F [Compound A19, (2S,3R)-1-{6-(difluoromethyl)-5-methoxy-4-[1-(1-methyl-3-azetidinyl)-4-pyrazolyl]-2-pyrimidinyl}-2-methyl-3-azetidinol]
28 nM | 5.2 nM | 31 nM | 14.7 nM | 17 nM |  | Cc1c(-c2cnn(CC(=O)N3CCNCC3)c2)nc(N2CC[C@@H]2C)nc1C(F)F [Compound A24, 2-(4-{2-[(S)-2-methyl-1-azetidinyl]-6-(difluoromethyl)-5-methyl-4-pyrimidinyl}-1-pyrazolyl)-1-(1-piperazinyl)-1-ethanone]
9 nM |  |  | 4.09 nM |  |  | C[C@H]1[C@H](O)CN1c1nc(-c2cnn(C3CN(C)C3)c2)c(F)c(C(F)(F)F)n1 [Compound A27, (2S,3R)-1-{5-fluoro-4-[1-(1-methyl-3-azetidinyl)-4-pyrazolyl]-6-(trifluoromethyl)-2-pyrimidinyl}-2-methyl-3-azetidinol]
 | 23 nM | 65 nM | 90.9 nM | 86 nM |  | O=C(Cn1cc(-c2cc(C(F)(F)F)nc(N3CC[C@@H]3C(F)F)n2)cn1)N1CCNCC1 [Compound A33, 2-(4-{2-[(R)-2-(difluoromethyl)-1-azetidinyl]-6-(trifluoromethyl)-4-pyrimidinyl}-1-pyrazolyl)-1-(1-piperazinyl)-1-ethanone]
36 nM | 7.3 nM | 6.5 nM | 3.64 nM | 14 nM |  | O=C(Cn1cc(-c2nc(N3CC[C@@H]3C(F)F)nc(C(F)(F)F)c2Cl)cn1)N1CCNCC1 [Compound A38, 2-(4-{2-[(R)-2-(difluoromethyl)-1-azetidinyl]-5-chloro-6-(trifluoromethyl)-4-pyrimidinyl}-1-pyrazolyl)-1-(1-piperazinyl)-1-ethanone]
43 nM | 10 nM | 13 nM | 18.3 nM | 26 nM |  | Cc1c(-c2cnn(CC(=O)N3CCNCC3)c2)nc(N2CC[C@@H]2C(F)F)nc1C(F)F [Compound A42, 2-(4-{2-[(R)-2-(difluoromethyl)-1-azetidinyl]-6-(difluoromethyl)-5-methyl-4-pyrimidinyl}-1-pyrazolyl)-1-(1-piperazinyl)-1-ethanone]
23 nM | 6.8 nM | 4.5 nM | 8.03 nM | 12 nM |  | Cc1c(-c2cnn(CC(=O)N3CCNCC3)c2)nc(N2CC[C@@H]2C(F)F)nc1C(F)(F)F [Compound A43, 2-(4-{2-[(R)-2-(difluoromethyl)-1-azetidinyl]-5-methyl-6-(trifluoromethyl)-4-pyrimidinyl}-1-pyrazolyl)-1-(1-piperazinyl)-1-ethanone]
91 nM |  |  |  |  | 457 nM | C[C@H]1CCN1c1nc(-c2cnn(CC(=O)N3CCNCC3)c2)cc(C(F)(F)F)n1 [Compound C2, reference compound]
4 nM |  |  |  |  | 191 nM | C[C@H]1[C@H](O)CN1c1nc(-c2cnn(C3CN(C)C3)c2)cc(C(F)(F)F)n1 [Compound C3, reference compound]
